Source: the NIST ThermoML archive (doi:10.1021/je0301085)
± gives the expanded uncertainty stated by the source.

How the values were obtained:
[1] = refractive index (Na D-line) (dimensionless); settings: 101.33 kPa, Liquid, Standard Abbe refractometry
[2] = Liquid; for mass density: 101.33 kPa

**Q.** With CC(Cl)(Cl)Cl [1,1,1-trichloroethane] as the molecule, how does the refractive index ([1]; 298.15 K) read?
**A.** Its refractive index is 1.436 ± 0.0007.

**Q.** And the mass density ([2]; 298.15 K)?
**A.** Its mass density is 1330 ± 5 kg/m3.

**Q.** What about the “vapor or sublimation pressure” value ([2]; 345.25 K) of the same molecule?
**A.** Its value is 94.6 ± 0.3 kPa.

**Q.** What about the “vapor or sublimation pressure” value ([2]; 345.35 K) of the same molecule?
**A.** The value was 94.6 ± 0.2 kPa.

**Q.** And the “vapor or sublimation pressure” value ([2]; 345.65 K)?
**A.** Its value is 95.8 ± 0.3 kPa.

**Q.** Which results are given for O=[N+]([O-])c1ccccc1 [nitrobenzene]?
**A.** refractive index ([1]; 298.15 K): 1.55 ± 0.001; mass density ([2]; 298.15 K): 1198 ± 5 kg/m3; vapor or sublimation pressure ([2]; 481.15 K): 94.6 ± 0.3 kPa

**Q.** For Clc1ccccc1 [chlorobenzene], which refractive index ([1]; 293.15 K) is on record?
**A.** The refractive index was 1.5248 ± 0.0007.

**Q.** What about the mass density ([2]; 293.15 K) of the same molecule?
**A.** Its mass density is 1106 ± 5 kg/m3.

**Q.** What about the “vapor or sublimation pressure” value ([2]; 402.55 K) of the same molecule?
**A.** The value was 94.6 ± 0.3 kPa.

**Q.** Which refractive index ([1]; 298.15 K) does the source give for CCCCCCC [heptane] here?
**A.** The refractive index was 1.3851 ± 0.0007.

**Q.** What about the mass density ([2]; 298.15 K) of the same molecule?
**A.** The mass density was 679.5 ± 5 kg/m3.

**Q.** What about the “vapor or sublimation pressure” value ([2]; 369.75 K) of the same molecule?
**A.** The value was 95.8 ± 0.3 kPa.

**Q.** What about the “vapor or sublimation pressure” value ([2]; 369.78 K) of the same molecule?
**A.** Its value is 95.8 ± 0.3 kPa.

**Q.** For ClC=C(Cl)Cl [trichloroethene], which refractive index ([1]; 298.15 K) is on record?
**A.** The refractive index was 1.4782 ± 0.0007.

**Q.** And the mass density ([2]; 298.15 K)?
**A.** The mass density was 1464 ± 5 kg/m3.

**Q.** What about the “vapor or sublimation pressure” value ([2]; 358.25 K) of the same molecule?
**A.** The value was 94.6 ± 0.3 kPa.

**Q.** What about the “vapor or sublimation pressure” value ([2]; 358.55 K) of the same molecule?
**A.** Its value is 95.8 ± 0.3 kPa.

**Q.** Which refractive index ([1]; 298.15 K) does the source give for ClCCCl [1,2-dichloroethane] here?
**A.** Its refractive index is 1.4421 ± 0.0007.

**Q.** What about the mass density ([2]; 298.15 K) of the same molecule?
**A.** The mass density was 1247 ± 5 kg/m3.

**Q.** What about the “vapor or sublimation pressure” value ([2]; 354.95 K) of the same molecule?
**A.** Its value is 94.6 ± 0.3 kPa.

**Q.** What about the “vapor or sublimation pressure” value ([2]; 355.05 K) of the same molecule?
**A.** The value was 94.6 ± 0.3 kPa.

**Q.** What about the “vapor or sublimation pressure” value ([2]; 355.25 K) of the same molecule?
**A.** The value was 95.8 ± 0.3 kPa.

**Q.** For ClC(Cl)=C(Cl)Cl [tetrachloroethene], which refractive index ([1]; 298.15 K) is on record?
**A.** The refractive index was 1.505 ± 0.0007.

**Q.** And the mass density ([2]; 298.15 K)?
**A.** The mass density was 1615 ± 5 kg/m3.

**Q.** And the “vapor or sublimation pressure” value ([2]; 391.25 K)?
**A.** The value was 94.6 ± 0.2 kPa.

**Q.** What about the “vapor or sublimation pressure” value ([2]; 391.65 K) of the same molecule?
**A.** Its value is 95.8 ± 0.2 kPa.

**Q.** What does the source list for ClC(Cl)C(Cl)Cl [1,1,2,2-tetrachloroethane]?
**A.** refractive index ([1]; 298.15 K): 1.494 ± 0.0007; mass density ([2]; 298.15 K): 1587 ± 5 kg/m3; vapor or sublimation pressure ([2]; 416.95 K): 94.6 ± 0.2 kPa; vapor or sublimation pressure ([2]; 417.35 K): 95.8 ± 0.2 kPa
